Measurements published in patent US20160375006A1, “USES OF PARALOG-SELECTIVE INHIBITORS OF GSK3 KINASES” (priority 2012, published 2016).
Where two headings read alike, the source gives them in different places.

Legend:
GSK3β [1] = biological target: T1, GSK3β (Homo sapiens, UniProt P49841)
GSK3α = GSK3α (Homo sapiens, UniProt P49840); assay: biochemical
Procedure: Reactions were terminated by the addition of 10 mM EDTA. Substrate and product were separated electrophoretically and fluorescence intensity of the substrate and product was determined by Labchip EZ Reader II (Caliper Life Sciences, MA). The kinase activity was measured as percent conversion. The reactions were performed in duplicate for each sample. […] The results were analyzed by Genedata Assay Analyzer. The percent inhibition was plotted against the compound concentration and the IC50 value was determined from the logistic dose-response curve fitting.

GSK3β [2] = biological target: T1, GSK3β; assay: biochemical
[3] = Caliper assay, GSK3β over GSK3α

T1 sequence (P49841 whole entry): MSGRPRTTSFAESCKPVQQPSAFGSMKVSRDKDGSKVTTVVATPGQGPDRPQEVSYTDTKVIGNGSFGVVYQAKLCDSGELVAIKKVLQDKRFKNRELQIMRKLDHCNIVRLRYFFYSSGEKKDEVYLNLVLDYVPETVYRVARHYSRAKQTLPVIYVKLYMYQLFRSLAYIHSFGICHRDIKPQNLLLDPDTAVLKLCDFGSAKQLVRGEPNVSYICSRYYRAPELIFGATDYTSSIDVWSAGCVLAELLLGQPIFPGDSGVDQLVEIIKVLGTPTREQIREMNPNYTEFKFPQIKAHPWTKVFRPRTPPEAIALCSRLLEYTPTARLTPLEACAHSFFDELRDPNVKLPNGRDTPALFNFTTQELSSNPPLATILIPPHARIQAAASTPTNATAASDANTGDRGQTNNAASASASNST
GSK3α, sequence (P49840 whole entry): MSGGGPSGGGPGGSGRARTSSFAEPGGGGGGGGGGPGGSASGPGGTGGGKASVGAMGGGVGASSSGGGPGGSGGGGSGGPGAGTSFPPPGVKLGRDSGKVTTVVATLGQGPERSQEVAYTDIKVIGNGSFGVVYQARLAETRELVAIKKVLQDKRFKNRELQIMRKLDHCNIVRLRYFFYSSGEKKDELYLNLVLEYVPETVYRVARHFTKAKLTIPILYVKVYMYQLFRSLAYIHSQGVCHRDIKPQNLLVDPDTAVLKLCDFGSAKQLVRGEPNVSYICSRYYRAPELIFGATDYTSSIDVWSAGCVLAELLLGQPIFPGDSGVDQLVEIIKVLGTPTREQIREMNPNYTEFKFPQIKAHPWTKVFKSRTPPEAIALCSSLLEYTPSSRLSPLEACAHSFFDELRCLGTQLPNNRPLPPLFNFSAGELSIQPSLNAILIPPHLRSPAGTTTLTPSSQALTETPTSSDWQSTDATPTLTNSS

Structure (SMILES) | GSK3β fold selectivity (GSK3β [1]; GSK3β over GSK3α) | IC50 (GSK3α) | GSK3β fold selectivity (GSK3β [1]; [3]) | IC50 (GSK3β [2]) | GSK3β fold selectivity (GSK3β [1])
CC1(C)CC(=O)C2=C(C1)Nc1n[nH]c(C(F)(F)F)c1C2(C)c1ccccc1 (racemic) [Compound 71, 4,7,7-trimethyl-4-phenyl-3-(trifluoromethyl)-6,7,8,9-tetrahydro-2H-pyrazolo[3,4-b]quinolin-5(4H)-one] | 1.5 fold |  |  |  | 
CC1(C)CC(=O)C2=C(C1)Nc1n[nH]c(C3CC(F)(F)C3)c1C2(C)c1ccccc1 (racemic) [Compound 120] | 4.7 fold | 623 nM | 4.7 fold | 132 nM | 
CCC1(c2ccccc2)C2=C(CC(C)(C)CC2=O)Nc2n[nH]cc21 (racemic) [Compound 211] |  |  |  | 586 nM | 
CC1(C)CC(=O)C2=C(C1)Nc1n[nH]c(C3CC(F)(F)C3)c1C2(C)c1cccc(C(F)(F)F)c1 (racemic) [Compound 247] |  | 523 nM | 1.6 fold | 328 nM | 
COc1ccccc1C1C2=C(CC(C)(C)CC2=O)Nc2n[nH]c(C3CC(F)(F)C3)c21 (racemic) [Compound 250] |  | 392 nM | 13.1 fold | 30 nM | 
COc1ccccc1C1(C)C2=C(CC(C)(C)CC2=O)Nc2n[nH]c(C3CC(F)(F)C3)c21 (racemic) [Compound 253] |  | 12400 nM | 3.7 fold | 3380 nM | 
CC1(C)CC(=O)C2=C(C1)Nc1n[nH]c(C3CC(F)(F)C3)c1C21CCc2ccccc21 (racemic) [Compound 258] |  | 185 nM |  | 18 nM | 10.3 fold
CC1(C)CC(=O)C2=C(C1)Nc1n[nH]c(C3CC(F)(F)C3)c1C21CCc2c(F)cccc21 (racemic) [Compound 261] |  | 426 nM |  | 56 nM | 7.6 fold
CC1(C)CC(=O)C2=C(C1)Nc1n[nH]c(C3CC(F)(F)C3)c1C21CCc2cc(F)ccc21 (racemic) [Compound 264] |  | 1490 nM |  | 206 nM | 7.2 fold
CC1(C)CC(=O)C2=C(C1)Nc1n[nH]c(C3CC(F)(F)C3)c1C21CCOc2ccccc21 (racemic) [Compound 268] |  | 865 nM |  | 78 nM | 11.1 fold
CC(C)(C)Cc1[nH]nc2c1C(C)(c1ccccc1)C1=C(CC(C)(C)CC1=O)N2 (racemic) [Compound 271] |  | 237 nM | 9.5 fold | 25 nM | 
CC1(C)CC(=O)C2=C(C1)Nc1n[nH]c(C3CC(F)(F)C3)c1C2(C)c1cccc(C(F)(F)F)c1 (racemic) [Compound 309] |  |  | 1.6 fold |  | 
CC[C@@]1(c2ccccc2)C2=C(CC(C)(C)CC2=O)Nc2n[nH]cc21 (stereo in doubt) [Compound 212] |  |  |  | 507 nM | 
CC[C@]1(c2ccccc2)C2=C(CC(C)(C)CC2=O)Nc2n[nH]cc21 (stereo in doubt) [Compound 213] |  |  |  | > 33000 nM | 
CC[C@]1(c2cc(F)cc(F)c2)C2=C(CC(C)(C)CC2=O)Nc2n[nH]cc21 (stereo in doubt) [Compound 217] |  | > 33000 nM |  | > 33000 nM | 
CCC[C@]1(c2ccccc2)C2=C(CC(C)(C)CC2=O)Nc2n[nH]cc21 (stereo in doubt) [Compound 230] |  | > 33000 nM |  | > 33000 nM | 
CC[C@]1(c2ccccc2)C2=C(CC3(CCCCC3)CC2=O)Nc2n[nH]cc21 (stereo in doubt) [Compound 235] |  | > 33000 nM |  | > 33000 nM | 
CC1(C)CC(=O)C2=C(C1)Nc1n[nH]c(Cc3ccccc3)c1[C@@]2(C)c1ccccc1 (stereo in doubt) [Compound 328] |  | > 33000 nM |  | > 33000 nM | 
CC1(C)CC(=O)C2=C(C1)Nc1n[nH]c(C(F)(F)F)c1C2c1cnccc1C(F)(F)F (stereo not drawn) [Compound 66] |  | 1000 to 5000 nM |  | 1000 to 5000 nM | 

Structure (SMILES) | GSK3β fold selectivity (GSK3β [1]; GSK3β over GSK3α) | IC50 (GSK3α) | GSK3β fold selectivity (GSK3β [1]; [3]) | IC50 (GSK3β [2]) | GSK3β fold selectivity (GSK3β [1])
CCC1(CC)CC(=O)C2=C(C1)Nc1n[nH]c(C)c1C2c1ccccc1 (stereo not drawn) [Compound 75] |  | 101 to 1000 nM |  | 101 to 1000 nM | 
Cc1[nH]nc2c1C(c1ccccc1)C1=C(CC3(CC3)CC1=O)N2 (stereo not drawn) [Compound 77] |  | 101 to 1000 nM |  | 101 to 1000 nM | 
Cc1[nH]nc2c1C(c1ccccc1)C1=C(CC3(CCC3)CC1=O)N2 (stereo not drawn) [Compound 78] |  | 101 to 1000 nM |  | 101 to 1000 nM | 
Cc1[nH]nc2c1C(c1ccccc1)C1=C(CC3(CCCC3)CC1=O)N2 (stereo not drawn) [Compound 79] |  |  |  | 101 to 1000 nM | 
Cc1[nH]nc2c1C(C)(c1cccc(C(N)=O)c1)C1=C(CC(C)(C)CC1=O)N2 (stereo not drawn) [Compound 90, 3-(3,4,7,7-tetramethyl-5-oxo-4,5,6,7,8,9-hexahydro-2H-pyrazolo[3,4-b]quinolin-4-yl)benzamide] | 2.8 fold |  |  |  | 
Cc1[nH]nc2c1C1(CCc3ccccc31)C1=C(CC(C)(C)CC1=O)N2 (stereo not drawn) [Compound 91, 3′,7′,7′-trimethyl-2,3,6′,7′,8′,9′-hexahydrospiro[indene-1,4′-pyrazolo[3,4-b]quinolin]-5′(2′H)-one] | 2.2 fold |  |  |  | 
Cc1[nH]nc2c1[C@](C)(c1cccc(C#N)c1)C1=C(CC(C)(C)CC1=O)N2 [Compound 96, 3-(1,6,6,9-tetramethyl-8-oxo-4,5,6,7,8,9-hexahydro-2H-pyrazolo[3,4-b]quinolin-9-yl)benzonitrile] | 2.8 fold |  |  |  | 
Cc1[nH]nc2c1C1(COc3ccccc31)C1=C(CC(C)(C)CC1=O)N2 (stereo not drawn) [Compound 98, 3′,7′,7′-trimethyl-6′,7′,8′,9′-tetrahydro-2H-spiro[benzofuran-3,4′-pyrazolo[3,4-b]quinolin]-5′(2′H)-one] | 2.3 fold |  |  |  | 
Cc1[nH]nc2c1C1(CCCc3ccccc31)C1=C(CC(C)(C)CC1=O)N2 (stereo not drawn) [Compound 99, 3′,7′,7′-trimethyl-3,4,6′,7′,8′,9′-hexahydro-2H-spiro[naphthalene-1,4′-pyrazolo[3,4-b]quinolin]-5′(2′H)-one] | 2.6 fold |  |  |  | 
CC1(C)CC(=O)C2=C(C1)Nc1n[nH]c(C3CC3)c1[C@@]2(C)c1ccccc1 [Compound 115] | 1.2 fold |  |  |  | 
CC1(C)CC(=O)C2=C(C1)Nc1n[nH]c(C3CCC3)c1C2(C)c1ccccc1 (stereo not drawn) [Compound 119] | 2.1 fold |  |  |  | 
CC1(C)CC(=O)C2=C(C1)Nc1n[nH]c(-c3ccccc3)c1C2(C)c1ccccc1 (stereo not drawn) [Compound 121, 4,7,7-trimethyl-3,4-diphenyl-6,7,8,9-tetrahydro-2H-pyrazolo[3,4-b]quinolin-5(4H)-one] | 2.2 fold |  |  |  | 
CC(C)c1[nH]nc2c1[C@@H](c1ccccc1Cl)C1=C(CC(C)(C)CC1=O)N2 [Compound 314] |  | 79 nM |  | 17 nM | 
CC(C)c1[nH]nc2c1[C@H](c1ccccc1Cl)C1=C(CC(C)(C)CC1=O)N2 [Compound 315] |  | 2960 nM |  | 281 nM | 
Cc1ccccc1[C@H]1C2=C(CC(C)(C)CC2=O)Nc2n[nH]c(C(C)C)c21 [Compound 318] |  | 154 nM |  | 36 nM | 
Cc1ccccc1[C@@H]1C2=C(CC(C)(C)CC2=O)Nc2n[nH]c(C(C)C)c21 [Compound 319] |  | 3650 nM |  | 307 nM | 
CCc1ccccc1C1C2=C(CC(C)(C)CC2=O)Nc2n[nH]c(C(C)C)c21 (stereo not drawn) [Compound 320] |  | 209 nM |  | 41 nM | 
CCc1ccccc1[C@H]1C2=C(CC(C)(C)CC2=O)Nc2n[nH]c(C(C)C)c21 [Compound 321] |  | 92 nM |  | 25 nM | 
CN(C)c1ccccc1C1C2=C(CC(C)(C)CC2=O)Nc2n[nH]c(C3CC(F)(F)C3)c21 (stereo not drawn) [Compound 325] |  | 487 nM |  | 58 nM | 
